The record followed here is PMC8645336, “Benchmarking a highly selective USP30 inhibitor for enhancement of mitophagy and pexophagy” (Life Science Alliance, 2021).

Holding throughout (test): biochemical
What all share (set-up): Ubiquigent DUB profiler selectivity panel, remaining enzyme activity as % of control
Common to all, as to details: read-out: % of control remaining

The target of assay [1] is USP20 (Homo sapiens, UniProt Q9Y2K6). An outline of the steps: (§1)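 CMPD-39 selectivity was profiled at 1-100 μM across >40 DUBs. Cellular engagement used 2 h CMPD-39 pretreatment, then HA-Ub-PA probe for 10 min at 37°C, with USP30 band shift on immunoblot. TOMM20 ubiquitylation was blotted in YFP-PRKN hTERT-RPE1 cells after 1 h antimycin A/oligomycin A (1 μM each).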
Assay [2] has as its target T1, OTUD6B (Homo sapiens, UniProt Q8N6M0).
T1 sequence (Q8N6M0 1-293): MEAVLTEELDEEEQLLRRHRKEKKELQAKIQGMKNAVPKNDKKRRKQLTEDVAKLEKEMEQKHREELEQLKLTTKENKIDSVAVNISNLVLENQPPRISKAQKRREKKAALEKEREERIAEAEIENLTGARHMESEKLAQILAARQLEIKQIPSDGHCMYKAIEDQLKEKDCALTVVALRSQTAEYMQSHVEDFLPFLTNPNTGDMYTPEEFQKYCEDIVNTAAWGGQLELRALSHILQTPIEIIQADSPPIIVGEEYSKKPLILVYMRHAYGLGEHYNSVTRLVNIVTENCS
The essentials:
as §1

For assay [3], the target named is T2, USP5 (Homo sapiens, UniProt P45974).
T2 sequence (P45974 1-858): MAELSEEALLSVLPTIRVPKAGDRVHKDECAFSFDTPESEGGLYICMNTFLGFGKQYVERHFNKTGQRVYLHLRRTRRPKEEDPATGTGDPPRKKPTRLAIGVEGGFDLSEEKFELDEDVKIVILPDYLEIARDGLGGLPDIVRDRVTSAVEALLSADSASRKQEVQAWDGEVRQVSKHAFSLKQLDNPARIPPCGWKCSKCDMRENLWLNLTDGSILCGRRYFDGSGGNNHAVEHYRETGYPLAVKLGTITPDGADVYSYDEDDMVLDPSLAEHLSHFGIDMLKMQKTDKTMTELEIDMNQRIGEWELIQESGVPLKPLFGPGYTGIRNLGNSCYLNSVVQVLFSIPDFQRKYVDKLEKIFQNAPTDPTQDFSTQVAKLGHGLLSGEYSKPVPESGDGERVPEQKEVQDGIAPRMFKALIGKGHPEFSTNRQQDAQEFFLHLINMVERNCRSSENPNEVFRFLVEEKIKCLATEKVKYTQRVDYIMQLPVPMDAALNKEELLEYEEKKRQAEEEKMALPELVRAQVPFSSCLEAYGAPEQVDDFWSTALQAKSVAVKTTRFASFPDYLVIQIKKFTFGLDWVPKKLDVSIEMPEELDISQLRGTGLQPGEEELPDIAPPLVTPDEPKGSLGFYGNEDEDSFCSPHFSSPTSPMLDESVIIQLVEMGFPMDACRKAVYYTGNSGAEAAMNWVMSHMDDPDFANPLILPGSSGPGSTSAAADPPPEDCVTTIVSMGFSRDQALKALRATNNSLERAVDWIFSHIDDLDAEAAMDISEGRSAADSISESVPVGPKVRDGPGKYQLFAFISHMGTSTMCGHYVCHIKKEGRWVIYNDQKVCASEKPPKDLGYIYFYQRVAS
An outline of the steps: as §1

USP20, sequence (Q9Y2K6 whole entry): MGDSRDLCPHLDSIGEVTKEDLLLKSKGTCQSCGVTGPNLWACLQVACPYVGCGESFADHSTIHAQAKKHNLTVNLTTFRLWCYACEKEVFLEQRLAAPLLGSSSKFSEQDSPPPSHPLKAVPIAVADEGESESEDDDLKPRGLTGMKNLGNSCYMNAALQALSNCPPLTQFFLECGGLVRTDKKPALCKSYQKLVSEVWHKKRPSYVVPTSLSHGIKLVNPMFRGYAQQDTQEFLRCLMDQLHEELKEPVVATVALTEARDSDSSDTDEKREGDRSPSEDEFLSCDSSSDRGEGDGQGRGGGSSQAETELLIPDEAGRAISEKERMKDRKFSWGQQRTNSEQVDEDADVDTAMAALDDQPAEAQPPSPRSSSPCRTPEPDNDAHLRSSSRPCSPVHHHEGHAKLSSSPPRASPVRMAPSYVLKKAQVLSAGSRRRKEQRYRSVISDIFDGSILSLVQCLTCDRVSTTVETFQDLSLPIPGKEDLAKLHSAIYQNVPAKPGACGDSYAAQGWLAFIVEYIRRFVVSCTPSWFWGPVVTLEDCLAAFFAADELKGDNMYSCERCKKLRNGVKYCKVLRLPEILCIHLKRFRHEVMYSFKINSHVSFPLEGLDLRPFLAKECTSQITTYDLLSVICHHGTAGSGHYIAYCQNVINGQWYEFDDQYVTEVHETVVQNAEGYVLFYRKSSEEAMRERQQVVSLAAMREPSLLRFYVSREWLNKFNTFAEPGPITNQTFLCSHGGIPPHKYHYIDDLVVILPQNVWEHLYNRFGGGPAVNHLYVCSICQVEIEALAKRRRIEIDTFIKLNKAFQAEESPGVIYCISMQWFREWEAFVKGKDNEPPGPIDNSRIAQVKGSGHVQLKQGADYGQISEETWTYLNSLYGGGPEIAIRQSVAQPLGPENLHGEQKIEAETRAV

In the case of `CC(C)(C)NS(=O)(=O)c1ccc(NC(=O)[C@H](Cc2ccccc2)NC(=O)c2ccc(F)cc2)cc1` [compound 39, CMPD-39], the remaining activity at 1 µM came out at 113% in assay [1], 110% in assay [2] and 104% in assay [3]. In addition, the figures for the remaining activity at 10 µM in assay [1], in assay [2] and in assay [3] were 110%, 100% and 101%, respectively. Moreover, the remaining activity at 100 µM in assay [1] turned out to be 155%; in assay [2], 101%; in assay [3] it was 106%.
